Reference: the supplement of paper PMC11208160

Assay: recombinant barcode read abundance after kanamycin selection (control-corrected) (log10(CPM+1)); higher = more efficient recombination; sequences stand for … in AGTGCAGAGAAAATCGGCCAGTTTTCTCTGCCTGCAGTCCGCATGCCGT…ATTTATGCAGCGGACTGCCTTTCTCCCAAAGTGATAAACCGGACAGTATCATGGACCGGTTTTCCCGGTAATCCGTATTTGCAAGGTTGGTTTCACT; site = the 11-nt target
Method in brief: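 Pooled oligos, each joining a target to an IS621 bridge RNA target-binding loop, were cloned and co-electroporated with a donor plasmid into E. coli. Selective plates carried chloramphenicol/ampicillin/kanamycin and 0.1 mM IPTG, while chloramphenicol/ampicillin LB agar served as control, with two replicates of each. Recombination efficiency rests on averaged, control-corrected counts per million of barcodes at recombinant junctions, shown as log10(CPM+1).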

Sequence | recombinant barcode read abundance (log10)
TGTATTCCGTGGGTTCTAACCTGTTGCCTCG [TGTATTCCTAG_LTGcore_CG_RTGcore_CG] (site TGTATTCCTAG) (LTG core: CG, RTG core: CG) | 0.0909
TGTATTCCTTGGGTTCTAACCTGTTGCCTAC [TGTATTCCTAG_LTGcore_CT_RTGcore_GT] (site TGTATTCCTAG) (LTG core: CT, RTG core: GT) | 0.0923
TGTATTCCTTGGGTTCTAACCTGTTGCCTCA [TGTATTCCTAG_LTGcore_CT_RTGcore_TG] (site TGTATTCCTAG) (LTG core: CT, RTG core: TG) | 0.1
TGTATTCCTTGGGTTCTAACCTGTTGCCTCT [TGTATTCCTAG_LTGcore_CT_RTGcore_AG] (site TGTATTCCTAG) (LTG core: CT, RTG core: AG) | 0.0303
TGTATTCCTTGGGTTCTAACCTGTTGCCTTG [TGTATTCCTAG_LTGcore_CT_RTGcore_CA] (site TGTATTCCTAG) (LTG core: CT, RTG core: CA) | 0.0735
TGTATTCTCTGGGTTCTAACCTGTTGCCTAG [TGTATTCCTAG_LTGcore_TC_RTGcore_CT] (site TGTATTCCTAG) (LTG core: TC, RTG core: CT) | 0.0135
TTATAAAAATGGGTTCTAACCTGTTGCCTTT [TTATAAACTAG_LTGcore_AA_RTGcore_AA] (site TTATAAACTAG) (LTG core: AA, RTG core: AA) | 0.038
TTATAAAACTGGGTTCTAACCTGTTGCCTAG [TTATAAACTAG_LTGcore_AC_RTGcore_CT] (site TTATAAACTAG) (LTG core: AC, RTG core: CT) | 0.39
TTATAAAATTGGGTTCTAACCTGTTGCCTAG [TTATAAACTAG_LTGcore_AT_RTGcore_CT] (site TTATAAACTAG) (LTG core: AT, RTG core: CT) | 0.0851
TTATAAAATTGGGTTCTAACCTGTTGCCTAT [TTATAAACTAG_LTGcore_AT_RTGcore_AT] (site TTATAAACTAG) (LTG core: AT, RTG core: AT) | 0.124
TTATAAACCTGGGTTCTAACCTGTTGCCTGG [TTATAAACTAG_LTGcore_CC_RTGcore_CC] (site TTATAAACTAG) (LTG core: CC, RTG core: CC) | 0.0325
TTATAAACTTGGGTTCTAACCTGTTGCCTAC [TTATAAACTAG_LTGcore_CT_RTGcore_GT] (site TTATAAACTAG) (LTG core: CT, RTG core: GT) | 0.944
TTATAAACTTGGGTTCTAACCTGTTGCCTAT [TTATAAACTAG_LTGcore_CT_RTGcore_AT] (site TTATAAACTAG) (LTG core: CT, RTG core: AT) | 0.302
TTATAAACTTGGGTTCTAACCTGTTGCCTGG [TTATAAACTAG_LTGcore_CT_RTGcore_CC] (site TTATAAACTAG) (LTG core: CT, RTG core: CC) | 0.574
TTATAAACTTGGGTTCTAACCTGTTGCCTTT [TTATAAACTAG_LTGcore_CT_RTGcore_AA] (site TTATAAACTAG) (LTG core: CT, RTG core: AA) | 0.0604
TTATAAAGTTGGGTTCTAACCTGTTGCCTAG [TTATAAACTAG_LTGcore_GT_RTGcore_CT] (site TTATAAACTAG) (LTG core: GT, RTG core: CT) | 0.109
TTATAAATATGGGTTCTAACCTGTTGCCTTA [TTATAAACTAG_LTGcore_TA_RTGcore_TA] (site TTATAAACTAG) (LTG core: TA, RTG core: TA) | 0.855
TTATAAATGTGGGTTCTAACCTGTTGCCTAG [TTATAAACTAG_LTGcore_TG_RTGcore_CT] (site TTATAAACTAG) (LTG core: TG, RTG core: CT) | 0.083
TTATAAATTTGGGTTCTAACCTGTTGCCTAG [TTATAAACTAG_LTGcore_TT_RTGcore_CT] (site TTATAAACTAG) (LTG core: TT, RTG core: CT) | 0.0473
